Where a name gives a salt, the structure may show the parent alone. Read-outs that look alike come from different tables or passages of the source.

Here are results for 17 compounds from patent publication US10858339B2, “Aryl cyclopropyl-amino-isoquinolinyl amide compounds” (priority 2017, dated 2020).

One assay has as its target ROCK2 (Homo sapiens, UniProt O75116). In words: biochemical.
A further assay deals with ROCK1 (Homo sapiens, UniProt Q13464). In words: ROCK kinase inhibition assay, ROCK1 enzyme.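 Further: kinase reaction with 0.5 µM final ATP, 75 min at room temperature, remaining ATP read by luminescence, percent of DMSO-only control minus background.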 It counts as biochemical.
For another assay, the target named is JAK2 (Homo sapiens, UniProt O60674). Nature of the assay: JAK kinase assay, JAK2 enzyme.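 Further: JAK2 kinase reaction run 75 min at room temperature, leftover ATP read by Kinase-Glo luminescence, 11-point dilution series in 2.5% DMSO, percent of inhibitor-free DMSO control.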 The assay is classed as biochemical.
In a further assay the target is T1, JAK3 (Homo sapiens, UniProt P52333).
T1 sequence (P52333 1-1124): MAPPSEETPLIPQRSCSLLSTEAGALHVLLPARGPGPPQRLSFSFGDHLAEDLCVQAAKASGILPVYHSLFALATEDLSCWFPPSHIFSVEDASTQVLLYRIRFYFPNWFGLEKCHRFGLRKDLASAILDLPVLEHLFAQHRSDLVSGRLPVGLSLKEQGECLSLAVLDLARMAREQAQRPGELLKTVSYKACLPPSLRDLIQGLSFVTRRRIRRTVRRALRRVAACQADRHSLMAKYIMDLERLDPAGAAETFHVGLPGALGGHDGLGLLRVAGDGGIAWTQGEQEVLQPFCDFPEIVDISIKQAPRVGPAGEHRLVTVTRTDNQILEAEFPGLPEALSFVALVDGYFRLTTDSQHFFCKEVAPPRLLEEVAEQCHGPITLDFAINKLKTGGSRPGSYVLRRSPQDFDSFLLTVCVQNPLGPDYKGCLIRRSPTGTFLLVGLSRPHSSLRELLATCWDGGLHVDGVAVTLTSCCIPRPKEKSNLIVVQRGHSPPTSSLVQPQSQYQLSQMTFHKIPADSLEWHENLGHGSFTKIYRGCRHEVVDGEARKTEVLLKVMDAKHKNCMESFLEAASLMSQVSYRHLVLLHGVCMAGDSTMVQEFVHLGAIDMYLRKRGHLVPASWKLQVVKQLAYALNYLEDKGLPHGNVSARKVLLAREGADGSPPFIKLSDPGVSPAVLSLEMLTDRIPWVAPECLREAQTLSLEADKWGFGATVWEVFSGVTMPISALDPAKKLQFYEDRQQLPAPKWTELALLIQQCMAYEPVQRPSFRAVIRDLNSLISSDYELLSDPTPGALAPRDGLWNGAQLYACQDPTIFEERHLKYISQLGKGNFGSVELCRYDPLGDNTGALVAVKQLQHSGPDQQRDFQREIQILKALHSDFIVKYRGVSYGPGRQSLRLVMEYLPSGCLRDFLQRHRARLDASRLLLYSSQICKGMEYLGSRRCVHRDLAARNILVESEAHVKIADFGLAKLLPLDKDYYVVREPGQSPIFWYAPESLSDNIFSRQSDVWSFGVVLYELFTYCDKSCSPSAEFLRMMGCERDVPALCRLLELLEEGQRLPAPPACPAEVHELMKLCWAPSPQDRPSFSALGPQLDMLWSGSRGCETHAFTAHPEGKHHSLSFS
In words: JAK kinase assay, JAK3 enzyme. The assay is classed as biochemical.

For a further assay, the target named is Rho Kinase. In words: ROCK kinase inhibition assay (Rho Kinase Activity, isoform not given). It counts as biochemical. As to conditions: Table 15, mostly given as ranges.
Assay [1] has as its system Porcine Trabecular Meshwork cells (PTM). Nature of the assay: PTM-HTM assay, actin fiber length in PTM cells. It counts as cell-based. The conditions noted are these: Sus scrofa, read-out: PTM. How it is done: Porcine Trabecular Meshwork cells (PTM) were isolated from freshly obtained enucleated porcine eyes. Immortalized Human Trabecular Meshwork cells (TM-1) were obtained through a kind gift from Donna Peters in the Department of Ophthalmology and Visual Sciences at the University of Wisconsin. Cells were plated onto fibronectin coated glass-bottom 96-well plates and allowed to attach overnight. Media was removed and replaced with test compound in media with 1% fetal bovine serum and incubated for various times. After incubation, cells were formaldehyde fixed, triton solubilized, and stained. PTM cells were stained with Alexa Fluor®488 phalloidin (F-actin) and Hoechst 33342 (nuclei). TM-1 cells were stained with anti-paxillin followed by Alexa Fluor®488 goat-anti-mouse IgG (focal adhesions) and Hoechst 33342 (nuclei). All staining reagents were obtained through Invitrogen. Images were collected on an INCell 2200 imager with a 20× objective. The actin fiber length and total area of focal adhesions were analyzed using custom algorithms developed in the INCell Developer Toolbox, v1.9.3. Data collected were converted to percent of control (untreated cells). Curves were fit to data in GraphPad Prizm using sigmoidal dose-response and constraining top and bottom to 100% and 0%, respectively.

A further assay addresses T2, IKKb (Homo sapiens, UniProt O14920).
T2 sequence (O14920 1-756): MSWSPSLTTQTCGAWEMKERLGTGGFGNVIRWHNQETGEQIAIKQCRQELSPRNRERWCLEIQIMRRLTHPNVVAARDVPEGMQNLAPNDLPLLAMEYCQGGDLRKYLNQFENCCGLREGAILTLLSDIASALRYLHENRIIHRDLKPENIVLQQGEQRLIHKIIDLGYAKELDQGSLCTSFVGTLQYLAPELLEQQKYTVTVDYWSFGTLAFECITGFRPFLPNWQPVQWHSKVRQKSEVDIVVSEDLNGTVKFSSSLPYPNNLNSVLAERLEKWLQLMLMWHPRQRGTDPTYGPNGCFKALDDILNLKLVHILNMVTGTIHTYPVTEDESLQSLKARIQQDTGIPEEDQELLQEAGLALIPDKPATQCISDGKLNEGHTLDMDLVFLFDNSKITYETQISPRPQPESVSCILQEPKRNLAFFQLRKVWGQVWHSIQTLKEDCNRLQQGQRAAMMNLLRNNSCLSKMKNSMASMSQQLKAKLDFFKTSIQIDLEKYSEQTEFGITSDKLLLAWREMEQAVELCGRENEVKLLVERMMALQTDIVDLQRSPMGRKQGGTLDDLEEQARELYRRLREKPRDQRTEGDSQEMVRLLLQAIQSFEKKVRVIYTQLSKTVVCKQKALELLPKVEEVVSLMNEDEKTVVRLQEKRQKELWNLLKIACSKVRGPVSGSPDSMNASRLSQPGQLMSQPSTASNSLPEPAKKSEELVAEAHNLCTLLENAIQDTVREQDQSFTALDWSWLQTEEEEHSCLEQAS
Nature of the assay: IKKb kinase activity. It counts as biochemical. As to conditions: Table 17.

A short description of assay [2]: Rabbit IOP after intracameral injection. The conditions noted are these: intracameral injection of a formulation, FIG. 1. It counts as in vivo. The source says:
Examples of such assays are described in the following reference, incorporated herein by reference: C. Liljebris, G. Selen, B. Resul, J. Sternschantz, and U. Hacksell, “Derivatives of 17-phenyl-18,19,20-trinorprostaglandin F2α Isopropyl Ester: Potential Anti-glaucoma Agents”, Journal of Medicinal Chemistry 1995, 38 (2): 289-304.

Where [3] appears, read: Table 17, porcine trabecular meshwork cells.

Sequence of ROCK2 (O75116 whole entry, species assumed): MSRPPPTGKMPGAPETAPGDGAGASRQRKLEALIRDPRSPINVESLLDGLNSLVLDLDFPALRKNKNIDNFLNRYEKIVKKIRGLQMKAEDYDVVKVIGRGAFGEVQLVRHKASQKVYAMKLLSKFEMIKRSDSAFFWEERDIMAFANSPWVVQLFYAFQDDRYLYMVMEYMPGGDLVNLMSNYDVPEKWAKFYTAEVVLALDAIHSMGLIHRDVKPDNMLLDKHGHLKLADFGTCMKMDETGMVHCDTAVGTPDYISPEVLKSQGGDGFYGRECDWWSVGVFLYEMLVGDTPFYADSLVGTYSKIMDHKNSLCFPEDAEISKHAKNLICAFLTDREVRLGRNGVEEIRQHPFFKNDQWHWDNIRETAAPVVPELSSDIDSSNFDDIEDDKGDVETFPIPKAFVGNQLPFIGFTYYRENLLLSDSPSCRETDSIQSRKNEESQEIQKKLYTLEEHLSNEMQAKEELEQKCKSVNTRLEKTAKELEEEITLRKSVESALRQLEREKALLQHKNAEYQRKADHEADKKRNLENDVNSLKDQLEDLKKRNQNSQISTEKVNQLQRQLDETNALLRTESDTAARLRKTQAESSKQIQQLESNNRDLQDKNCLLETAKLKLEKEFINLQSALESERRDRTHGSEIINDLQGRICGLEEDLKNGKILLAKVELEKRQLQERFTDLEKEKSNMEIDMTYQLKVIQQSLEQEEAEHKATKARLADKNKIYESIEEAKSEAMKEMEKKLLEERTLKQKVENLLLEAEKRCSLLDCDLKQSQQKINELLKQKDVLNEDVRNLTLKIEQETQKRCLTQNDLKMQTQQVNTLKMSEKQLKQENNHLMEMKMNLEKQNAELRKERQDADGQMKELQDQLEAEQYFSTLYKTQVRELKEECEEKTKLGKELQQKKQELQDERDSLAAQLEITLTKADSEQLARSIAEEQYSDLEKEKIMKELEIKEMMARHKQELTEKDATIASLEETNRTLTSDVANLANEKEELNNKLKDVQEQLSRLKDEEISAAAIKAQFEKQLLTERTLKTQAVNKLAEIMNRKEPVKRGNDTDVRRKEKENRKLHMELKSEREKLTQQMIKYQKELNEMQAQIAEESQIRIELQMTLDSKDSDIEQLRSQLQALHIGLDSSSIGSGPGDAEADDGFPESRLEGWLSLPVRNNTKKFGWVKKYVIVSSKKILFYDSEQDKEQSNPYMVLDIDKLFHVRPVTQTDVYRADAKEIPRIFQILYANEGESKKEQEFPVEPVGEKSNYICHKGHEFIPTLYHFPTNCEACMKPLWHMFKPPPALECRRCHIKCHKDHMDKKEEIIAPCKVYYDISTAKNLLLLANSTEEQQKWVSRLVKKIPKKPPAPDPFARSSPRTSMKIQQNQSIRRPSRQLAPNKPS
Sequence of ROCK1 (Q13464 whole entry, species assumed): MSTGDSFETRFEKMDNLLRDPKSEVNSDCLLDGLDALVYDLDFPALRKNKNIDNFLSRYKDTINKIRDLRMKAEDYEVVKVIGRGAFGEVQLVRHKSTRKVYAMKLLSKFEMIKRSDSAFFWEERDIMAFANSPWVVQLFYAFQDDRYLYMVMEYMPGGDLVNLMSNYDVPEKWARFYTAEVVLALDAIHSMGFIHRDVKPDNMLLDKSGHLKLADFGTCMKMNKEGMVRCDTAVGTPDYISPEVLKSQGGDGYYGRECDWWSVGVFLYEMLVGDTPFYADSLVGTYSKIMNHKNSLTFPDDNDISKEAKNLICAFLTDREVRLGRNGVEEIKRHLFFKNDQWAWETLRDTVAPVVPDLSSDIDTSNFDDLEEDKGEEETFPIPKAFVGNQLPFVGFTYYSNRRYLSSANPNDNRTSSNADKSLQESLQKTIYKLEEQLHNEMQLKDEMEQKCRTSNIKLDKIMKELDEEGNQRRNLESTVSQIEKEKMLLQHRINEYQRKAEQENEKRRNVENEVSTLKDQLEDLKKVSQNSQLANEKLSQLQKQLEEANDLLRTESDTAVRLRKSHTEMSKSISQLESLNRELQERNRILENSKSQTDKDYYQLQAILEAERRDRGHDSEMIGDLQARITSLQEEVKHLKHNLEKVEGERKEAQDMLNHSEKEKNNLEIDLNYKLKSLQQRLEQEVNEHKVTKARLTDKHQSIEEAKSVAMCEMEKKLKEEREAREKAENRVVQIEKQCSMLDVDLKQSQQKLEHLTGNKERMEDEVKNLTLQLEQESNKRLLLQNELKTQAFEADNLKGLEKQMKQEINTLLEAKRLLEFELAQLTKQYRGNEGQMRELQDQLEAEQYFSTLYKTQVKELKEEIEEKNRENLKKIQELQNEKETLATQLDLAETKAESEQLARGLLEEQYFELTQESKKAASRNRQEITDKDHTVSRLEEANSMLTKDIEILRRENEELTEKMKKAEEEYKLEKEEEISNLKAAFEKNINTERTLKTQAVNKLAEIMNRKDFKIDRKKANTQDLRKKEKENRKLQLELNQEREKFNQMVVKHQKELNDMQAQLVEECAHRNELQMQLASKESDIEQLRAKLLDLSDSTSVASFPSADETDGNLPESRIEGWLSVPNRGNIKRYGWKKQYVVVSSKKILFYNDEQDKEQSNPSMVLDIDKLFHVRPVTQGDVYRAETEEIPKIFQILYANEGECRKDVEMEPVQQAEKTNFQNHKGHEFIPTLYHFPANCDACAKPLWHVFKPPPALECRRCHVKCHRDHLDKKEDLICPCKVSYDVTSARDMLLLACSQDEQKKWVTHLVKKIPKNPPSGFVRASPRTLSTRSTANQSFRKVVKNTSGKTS
Sequence of JAK2 (O60674 whole entry, species assumed): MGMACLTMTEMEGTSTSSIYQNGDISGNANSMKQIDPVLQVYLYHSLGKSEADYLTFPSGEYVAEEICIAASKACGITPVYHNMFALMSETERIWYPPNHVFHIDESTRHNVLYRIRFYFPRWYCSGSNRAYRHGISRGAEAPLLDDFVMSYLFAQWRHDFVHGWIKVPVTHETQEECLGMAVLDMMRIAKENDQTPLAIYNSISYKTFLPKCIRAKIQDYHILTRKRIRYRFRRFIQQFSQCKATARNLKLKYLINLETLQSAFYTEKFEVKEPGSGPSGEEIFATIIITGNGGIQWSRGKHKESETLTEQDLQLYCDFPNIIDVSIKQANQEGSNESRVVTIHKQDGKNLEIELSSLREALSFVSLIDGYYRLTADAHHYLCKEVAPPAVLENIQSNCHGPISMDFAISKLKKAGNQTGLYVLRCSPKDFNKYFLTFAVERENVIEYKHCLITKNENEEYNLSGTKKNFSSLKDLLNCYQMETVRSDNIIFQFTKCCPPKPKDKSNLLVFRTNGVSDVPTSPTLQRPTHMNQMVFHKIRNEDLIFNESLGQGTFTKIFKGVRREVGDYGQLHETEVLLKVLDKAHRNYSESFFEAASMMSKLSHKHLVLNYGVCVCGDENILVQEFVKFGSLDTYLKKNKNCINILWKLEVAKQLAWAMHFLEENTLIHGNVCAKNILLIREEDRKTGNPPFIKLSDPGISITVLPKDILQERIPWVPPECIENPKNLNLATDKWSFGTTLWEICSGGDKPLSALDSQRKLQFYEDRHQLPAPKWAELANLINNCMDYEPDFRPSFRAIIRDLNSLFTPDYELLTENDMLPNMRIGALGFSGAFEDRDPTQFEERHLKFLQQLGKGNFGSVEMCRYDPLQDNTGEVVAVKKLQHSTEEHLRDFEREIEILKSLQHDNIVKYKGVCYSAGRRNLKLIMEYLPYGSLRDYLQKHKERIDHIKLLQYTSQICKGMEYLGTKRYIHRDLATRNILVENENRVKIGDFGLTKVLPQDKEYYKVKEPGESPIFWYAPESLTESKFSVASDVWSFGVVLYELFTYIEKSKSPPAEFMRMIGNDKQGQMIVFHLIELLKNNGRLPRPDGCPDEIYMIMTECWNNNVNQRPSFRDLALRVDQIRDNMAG

Regarding `O=C(Nc1ccc2cnccc2c1)[C@@H]1C[C@H]1c1ccc(F)c(S(=O)(=O)Nc2ccccn2)c1` [drawing 673], the Ki is 12.5 nM at ROCK2 (ROCK2, Table 17); 15 nM at ROCK1 (ROCK1, Table 17); 1400 nM at JAK2 (Table 17, read-out: JAK2); 1060 nM on JAK3 (Table 17, read-out: JAK3).
Regarding `O=C(Nc1ccc2cnccc2c1)[C@@H]1C[C@H]1c1ccc(F)c(S(=O)(=O)Nc2ccccc2)c1` [drawing 674], the Ki at ROCK2 (ROCK2, Table 17) was determined as 240 nM; at ROCK1 (ROCK1, Table 17) it was 150 nM; on JAK2 (Table 17, read-out: JAK2), 3000 nM; at JAK3 (Table 17, read-out: JAK3), 7500 nM.
`O=C(Nc1ccc2cnccc2c1)[C@@H]1C[C@H]1c1ccc(S(=O)(=O)NC[C@@H]2CCCNC2)cc1` [Example E273]: the Ki on ROCK2 (ROCK2, Table 16) turned out to be 4 nM; on ROCK1 (ROCK1, Table 16), 4 nM; at JAK3 (Table 16, read-out: JAK3), 1140 nM.
Regarding `O=C(Nc1ccc2cncc(Cl)c2c1)[C@@H]1C[C@H]1c1ccc(S(=O)(=O)NC[C@@H]2CCCNC2)cc1` [drawing 666], at JAK3 (Table 17, read-out: JAK3), the Ki came out at 160 nM.
With `O=C(NCc1ccccn1)c1ccc(C2CC(=O)N(c3ccc4cnccc4c3)C2)cc1` (stereo not drawn) [Example E233], the Ki on Rho Kinase was in the range of 4350 to 8400 nM; at JAK2 (Table 15, in brackets in the activity cell, read-out: JAK2 activity), 5800 to 13500 nM; on JAK3 (Table 15, in brackets in the activity cell, read-out: JAK3 activity) it was 3400 to 3800 nM.
With `O=C(Nc1ccc2cncc(Cl)c2c1)C1CC1c1ccc(S(=O)(=O)Nc2ccccn2)cc1` (racemic) [rel-N-(4-chloroisoquinolin-6-yl)-2-(4-(N-(pyridin-2-yl)sulfamoyl)phenyl)cyclopropane-1-carboxamide], in assay [1] (setting [3]), the IC50 was found to be 227 nM. Besides, on IKKb, the Ki worked out at 9 nM.
For the compound `O=C(Nc1ccc2cncc(Cl)c2c1)[C@@H]1C[C@H]1c1ccc(S(=O)(=O)NC[C@@H]2CCCNC2)cc1` [Example E274], the Ki at JAK3 (Table 16, read-out: JAK3) amounted to 160 nM.
Take “(1R,2R)—N-(fluoroisoquinolin-6-yl)-2-(4-(pyridinylmethyl)phenyl)cyclopropane-1-carboxamide”: the “changes (reductions) in rabbit IOP” value in assay [2] is recorded as “reductions”.
Take `O=C(Nc1ccc2cncc(Cl)c2c1)[C@@H]1C[C@H]1c1ccc(S(=O)(=O)NC[C@@H]2CCCNC2)cc1` (relative stereo) [(rel)-(1R,2R)-N-(4-chloroisoquinolin-6-yl)-2-(4-(N-(((R)-piperidin-3-yl)methyl)sulfamoyl)phenyl)cyclopropane-1-carboxamide dihydrochloride]: the Ki on JAK3 (Table 17, read-out: JAK3) amounted to 160 nM.
In the case of `O=C(Nc1ccc2cnccc2c1)[C@@H]1C[C@H]1c1ccc(S(=O)(=O)Nc2ccccn2)cc1` [(1R,2R)-N-(isoquinolin-6-yl)-2-(4-(N-(pyridin-2-yl)sulfamoyl)phenyl) cyclopropane-1-carboxamide], the IC50 in assay [1] is 61 nM. The Ki at JAK3 (Table 17, read-out: JAK3) turned out to be 4.3 nM.
As to `O=C(Nc1ccc2cnccc2c1)[C@@H]1C[C@H]1c1ccc(F)c(S(=O)(=O)Nc2ccccn2)c1` [Example E280], the Ki at ROCK2 (ROCK2, Table 16) was 12.5 nM; at ROCK1 (ROCK1, Table 16), 15 nM; on JAK2 (Table 16, read-out: JAK2), 1400 nM; at JAK3 (Table 16, read-out: JAK3) it was 1060 nM.
For `O=C(Nc1ccc2cnccc2c1F)[C@@H]1CC1c1ccc(S(=O)(=O)Nc2ccccn2)cc1` (mixture of isomers) [N-(5-fluoroisoquinolin-6-yl)-2-(4-(N-(pyridin-2-yl)sulfamoyl)phenyl)cyclopropane-1-carboxamide], the IC50 in assay [1] (setting [3]) stood at 290 nM. The Ki on ROCK2 (ROCK2, Table 17) stood at 4.9 nM; on IKKb, 144 nM; on ROCK1 (ROCK1, Table 17), 10.3 nM; on JAK3 (Table 17, read-out: JAK3) it was 130 nM.
Turning to `O=C(Nc1ccc2cnccc2c1)[C@@H]1C[C@H]1c1ccc(F)c(S(=O)(=O)Nc2ccccc2)c1` [Example E281], the Ki at ROCK2 (ROCK2, Table 16) is 240 nM; at ROCK1 (ROCK1, Table 16), 150 nM; at JAK2 (Table 16, read-out: JAK2), 3000 nM; on JAK3 (Table 16, read-out: JAK3), 7500 nM.
Consider `O=C(Nc1ccc2cnccc2c1)[C@@H]1C[C@H]1c1ccc(S(=O)(=O)Nc2ccccn2)cc1` (single isomer, unassigned) [Example E266], for which the Ki at ROCK1 (ROCK1, Table 16) was 9 nM; on JAK3 (Table 16, read-out: JAK3), 12 nM.
Regarding `O=C(Nc1ccc2cnccc2c1)[C@@H]1C[C@H]1c1ccc(S(=O)(=O)Nc2ccccn2)cc1` (single isomer, unassigned) [Example E267], the Ki on JAK3 (Table 16, read-out: JAK3) stood at 5.8 nM.
Regarding `O=C(Nc1ccc2cnccc2c1)[C@@H]1C[C@H]1c1ccc(S(=O)(=O)Nc2ccccn2)cc1` (racemic), the Ki at JAK3 (Table 17, read-out: JAK3) was found to be 12 nM.
As for `O=C(Nc1ccc2cnccc2c1)[C@@H]1C[C@H]1c1ccc(S(=O)(=O)NC[C@@H]2CCCNC2)cc1` (relative stereo) [(rel)-(1R,2R)-N-(isoquinolin-6-yl)-2-(4-(N-(((R)-piperidin-3-yl)methyl)sulfamoyl)phenyl) cyclopropane-1-carboxamide dihydrochloride], the Ki at ROCK2 (ROCK2, Table 17) was determined as 4 nM; at ROCK1 (ROCK1, Table 17), 4 nM; at JAK3 (Table 17, read-out: JAK3) it was 1140 nM.
